Legend:
Assay in all cases: Bliss excess, mean over the matrix (fraction); higher = more synergy
[1] = test system: COR-L279 (Small Cell Lung Carcinoma)
In short: (§1)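 After 24 hours at 37°C and 5% CO2 in 1536-well plates, cells in DMEM/F12 or RPMI plus 10% FBS received two-drug dose matrices for 72 hours. Viability came from CellTiter-Glo 2.0 luminescence and was scaled as inhibition, anchored at 0 by vehicle wells and at 1 by blank wells. Combination Emax is taken as the second-highest inhibition in the matrix, and Bliss excess as the observed combination effect less EA + EB − EA·EB, with EA and EB the single-agent effects.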

[2] = test system: DMS-114 (Small Cell Lung Carcinoma)
In short: as §1

[3] = test system: H9 (T-Cell Non-Hodgkin's Lymphoma)
In short: as §1

[4] = test system: HCC1419 (Breast Carcinoma)
In short: as §1

[5] = test system: JHH-4 (Hepatocellular Carcinoma)
In short: as §1

[6] = test system: KU812 (Chronic Myelogenous Leukemia)
In short: as §1

[7] = test system: KYSE-270 (Esophageal Squamous Cell Carcinoma)
In short: as §1

M059J (Glioblastoma) = test system: M059J (Glioblastoma)
In short: as §1

[8] = test system: MN-60 (B-Lymphoblastic Leukemia)
In short: as §1

[9] = test system: MOG-G-CCM (Low Grade Glioma)
In short: as §1

[10] = test system: MOLM-13 (Acute Myeloid Leukemia)
In short: as §1

[11] = test system: NCCIT (Other Solid Carcinomas)
In short: as §1

RD (Rhabdomyosarcoma) = test system: RD (Rhabdomyosarcoma)
In short: as §1

[12] = test system: RPMI-8226 (Plasma Cell Myeloma)
In short: as §1

SJSA-1 (Osteosarcoma) = test system: SJSA-1 (Osteosarcoma)
In short: as §1

[13] = test system: SK-GT-4 (Esophageal Adenocarcinoma)
In short: as §1

[14] = test system: SU-DHL-5 (B-Cell Non-Hodgkin's Lymphoma)
In short: as §1

[15] = test system: T-T (Esophageal Squamous Cell Carcinoma)
In short: as §1

[16] = test system: VMRC-RCZ (Kidney Carcinoma)
In short: as §1

[17] = test system: DAN-G (Pancreatic Carcinoma)
In short: as §1

SMILES | Bliss excess [1] | Bliss excess [2] | Bliss excess [3] | Bliss excess [4] | Bliss excess [5] | Bliss excess [6] | Bliss excess [7] | Bliss excess (M059J (Glioblastoma)) | Bliss excess [8] | Bliss excess [9] | Bliss excess [10] | Bliss excess [11] | Bliss excess (RD (Rhabdomyosarcoma)) | Bliss excess [12] | Bliss excess (SJSA-1 (Osteosarcoma)) | Bliss excess [13] | Bliss excess [14] | Bliss excess [15] | Bliss excess [16] | Bliss excess [17]
COc1cc2ncnc(Nc3ccc(F)c(Cl)c3)c2cc1OCCCN1CCOCC1 [Gefitinib] + CC(C)n1c(=O)n(C)c2cnc3cc(F)c(-c4ccc(OCCCN5CCCCC5)nc4)cc3c21 [AZD1390] (first compound max 10 µM, 7x7, partner max 0.3 µM) | -0.0419 | -0.0579 | -0.0723 | -0.0216 | -0.0751 | -0.0436 | -0.003 | -0.0325 | -0.0444 | -0.0271 | -0.0462 | -0.0466 | -0.0699 | -0.0547 | -0.0562 | -0.0846 | -0.0317 | -0.0411 | -0.0621 | 
CS(=O)(=O)CCNCc1ccc(-c2ccc3ncnc(Nc4ccc(OCc5cccc(F)c5)c(Cl)c4)c3c2)o1 [Lapatinib] + C[C@@H](Oc1cc(-c2cnn(C3CCNCC3)c2)cnc1N)c1c(Cl)ccc(F)c1Cl [Crizotinib] (first compound max 10 µM, 7x7, partner max 10 µM) | -0.06 | -0.017 | -0.0249 |  | 0.0041 | -0.0598 | -0.0054 | -0.0733 | -0.0288 | -0.102 | 0.0308 | 0.0045 | -0.0253 | -0.0127 | -0.017 | -0.0211 | -0.0186 | -0.0172 | -0.0291 | 0.0148
CS(=O)(=O)CCNCc1ccc(-c2ccc3ncnc(Nc4ccc(OCc5cccc(F)c5)c(Cl)c4)c3c2)o1 [Lapatinib] + Cn1cnc2c(F)c(Nc3ccc(Br)cc3Cl)c(C(=O)NOCCO)cc21 [Selumetinib] (first compound max 10 µM, 7x7, partner max 10 µM) | -0.0224 | -0.044 |  |  |  | 0.0082 | -0.0187 | -0.0403 | -0.0751 | -0.0433 |  | -0.0596 |  |  | -0.0364 | 0.0369 |  | 0.0514 | -0.0149 | 
CS(=O)(=O)CCNCc1ccc(-c2ccc3ncnc(Nc4ccc(OCc5cccc(F)c5)c(Cl)c4)c3c2)o1 [Lapatinib] + NC1(c2ccc(-c3nc4ccn5c(=O)[nH]nc5c4cc3-c3ccccc3)cc2)CCC1 [MK-2206] (first compound max 10 µM, 7x7, partner max 10 µM) | 0.0229 | 0.0721 | -0.247 |  |  | -0.0194 | 0.0262 | -0.0047 | 0.0332 | -0.0681 |  | -0.0143 |  |  | -0.0402 | 0.0402 |  | -0.0168 | 0.0019 | 
CC(=O)c1c(C)c2cnc(Nc3ccc(N4CCNCC4)cn3)nc2n(C2CCCC2)c1=O [Palbociclib] + CC1(C)CCC(CN2CCN(c3ccc(C(=O)NS(=O)(=O)c4ccc(NCC5CCOCC5)c([N+](=O)[O-])c4)c(Oc4cnc5[nH]ccc5c4)c3)CC2)=C(c2ccc(Cl)cc2)C1 [Venetoclax] (first compound max 10 µM, 7x7, partner max 1 µM) | -0.002 | -0.0282 | -0.0394 |  | -0.0003 | -0.0401 | -0.0349 | -0.0511 | -0.0666 | -0.0493 | 0.04 | -0.0412 | -0.0486 | 0.0461 | -0.0295 | -0.0437 | -0.0201 | -0.027 | -0.0479 | -0.0324
CC(=O)c1c(C)c2cnc(Nc3ccc(N4CCNCC4)cn3)nc2n(C2CCCC2)c1=O [Palbociclib] + Cc1c2c(nn1C)CSCc1cc(n(C)n1)CSc1cc(c3ccccc3c1)OCCCc1c(C(=O)O)n(C)c3c-2c(Cl)ccc13 [AZD5991] (first compound max 10 µM, 7x7, partner max 1 µM) | 0.006 | -0.0083 | -0.0795 |  | -0.0518 | -0.0351 | -0.0804 | -0.0303 | -0.0363 | -0.0595 | -0.0314 | -0.0538 | 0.0077 | -0.0191 | -0.0426 | -0.0645 | -0.0071 | 0.0028 | -0.026 | -0.0356
CC(=O)c1c(C)c2cnc(Nc3ccc(N4CCNCC4)cn3)nc2n(C2CCCC2)c1=O [Palbociclib] + Cn1cnc2c(F)c(Nc3ccc(Br)cc3Cl)c(C(=O)NOCCO)cc21 [Selumetinib] (first compound max 10 µM, 7x7, partner max 10 µM) | -0.025 | -0.0065 | -0.0868 |  | -0.0336 | -0.0536 | -0.0512 | -0.0441 | -0.0405 | -0.0511 | 0.0262 | -0.0291 | 0.0455 | 0.142 | -0.038 | -0.0126 | 0.101 | 0.0252 | -0.0367 | -0.0077
CCc1c2c(nc3ccc(O)cc13)-c1cc3c(c(=O)n1C2)COC(=O)[C@]3(O)CC [SN-38] + O=C(c1cc(Cc2n[nH]c(=O)c3ccccc23)ccc1F)N1CCN(C(=O)C2CC2)CC1 [Olaparib] (first compound max 0.3 µM, 7x7, partner max 10 µM) | 0.0742 | 0.0741 | 0.111 |  |  | 0.0053 | 0.0159 | 0.0784 | 0.0066 | 0.099 |  | 0.0062 |  |  | 0.0423 | 0.0257 | 0.065 | -0.0243 | 0.0072 | 
